# In patent US8039487B2, “Piperidine-amide derivatives” (Hoffmann-La Roche Inc., priority 2007, dated 2011):
# Target: T1, liver carnitine palmitoyl transferase 1 (L-CPT1) (Homo sapiens, UniProt P50416)
# T1 construct: made in house; host or cells: Pichia pastoris strain X-33 (crude cell-free extract)
# T1 sequence (P50416 1-773): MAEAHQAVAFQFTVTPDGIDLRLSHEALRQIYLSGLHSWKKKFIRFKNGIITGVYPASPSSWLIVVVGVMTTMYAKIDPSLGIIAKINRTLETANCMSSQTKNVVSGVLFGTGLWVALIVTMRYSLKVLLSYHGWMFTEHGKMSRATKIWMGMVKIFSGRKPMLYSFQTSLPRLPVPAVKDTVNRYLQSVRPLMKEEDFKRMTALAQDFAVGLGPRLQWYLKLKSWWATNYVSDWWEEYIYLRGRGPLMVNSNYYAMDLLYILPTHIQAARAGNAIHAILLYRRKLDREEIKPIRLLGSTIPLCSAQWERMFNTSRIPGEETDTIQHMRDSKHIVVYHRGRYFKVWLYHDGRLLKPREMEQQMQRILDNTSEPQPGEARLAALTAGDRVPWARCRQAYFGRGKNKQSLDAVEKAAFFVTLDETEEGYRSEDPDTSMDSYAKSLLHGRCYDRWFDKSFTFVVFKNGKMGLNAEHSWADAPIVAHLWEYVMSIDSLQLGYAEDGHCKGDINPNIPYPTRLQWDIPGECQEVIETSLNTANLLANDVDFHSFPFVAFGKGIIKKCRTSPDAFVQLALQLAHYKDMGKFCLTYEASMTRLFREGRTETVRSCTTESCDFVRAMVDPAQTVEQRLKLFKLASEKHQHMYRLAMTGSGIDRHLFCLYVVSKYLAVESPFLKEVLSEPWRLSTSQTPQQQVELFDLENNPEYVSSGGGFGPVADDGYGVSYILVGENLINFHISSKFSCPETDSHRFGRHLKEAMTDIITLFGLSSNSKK
# Experiment: L-CPT1 inhibition, spectrophotometric CPT activity assay with DTNB (Ellman's reagent)
# Assay type: biochemical
# Settings: human liver CPT1 expressed in P. pastoris, cell extracts; carnitine 500 μM, palmitoyl-CoA 80 μM, DTNB 300 μM, pH 7.4
# Description: The following tests were carried out in order to determine the activity of the compounds of the present invention. Background information on the performed assays can be found in: Jackson et al., 1999, Biochem. J. 341, 483-489 and Jackson et al., 2000, J. Biol. Chem. 275, 19560-19566.
# Human liver and muscle CPT1 cDNAs and rat CPT2 cDNA were subcloned in pGAPZB or pGAPZA, respectively. These plasmids were used to transform P. pastoris strain X-33 via electroporation after the preparation of electrocompetent cells. High copy number clones were selected where necessary using 0.5 or 1 mg/ml Zeocin. Cultures for activity measurements were induced for 16 h in YPD medium (1% yeast extract, 2% peptone, 2% glucose). Crude cell extracts were prepared by disrupting the cells with glass beads or French Press, depending on fermenter sizes. After centrifugation, the cell-free extracts were resuspended in cell breaking buffer (50 mM Tris, pH7.4, 100 mM KCl, 1 mM EDTA) in the presence of a protease inhibitor cocktail, before aliquoting and freezing at −20° C.
# CPT activity was measured using a spectrophotometric assay using 5,5′-dithio-bis-(2-nitrobenzoic acid) (DTNB) also called Ellman's reagent. The HS-CoA released on the formation of acylcarnitine from carnitine (500 μM) and palmitoyl-CoA (80 μM) reduced DTNB (300 μM) forming 5-mercapto-(2-nitrobenzoic acid) which absorbed at 410 nm with a molar extinction coefficient of 13600 M^−1cm^−1. The assay buffer contained 120 mM KCl, 25 mM Tris, pH 7.4, 1 mM EDTA. This assay was used for the identification of selective inhibitors of the liver CPT1 isoform versus the muscle CPT1 and CPT2 isoforms.
row,IC50 [µM],SMILES
1,1.4,"O=C(COc1ccccc1)N1CCCC[C@@H]1c1nc(-c2ccc(Cl)cc2)cs1 [Example 1, 1-{(R)-2-[4-(4-Chloro-phenyl)-thiazol-2-yl]-piperidin-1-yl}-2-phenoxy-ethanone]"
2,0.268,"O=C(COc1ccccc1)N1CCCC[C@@H]1c1nc(-c2ccccc2)cs1 [Example 2, 2-Phenoxy-1-[(R)-2-(4-phenyl-thiazol-2-yl)-piperidin-1-yl]-ethanone]"
3,0.129,"O=C(O)c1ccc(-c2csc([C@H]3CCCCN3C(=O)COc3ccccc3)n2)cc1 [Example 3, 4-{2-[(R)-1-(2-Phenoxy-acetyl)-piperidin-2-yl]-thiazol-4-yl}-benzoic acid]"
4,0.798,"O=C(COc1ccccc1)N1CCCC[C@@H]1c1nc(-c2ccc(OC(F)(F)F)cc2)cs1 [Example 4, 2-Phenoxy-1-{(R)-2-[4-(4-trifluoromethoxy-phenyl)-thiazol-2-yl]-piperidin-1-yl}-ethanone]"
5,0.0335,"O=C(O)c1cccc(-c2csc([C@H]3CCCCN3C(=O)COc3ccccc3)n2)c1 [Example 5, 3-{2-[(R)-1-(2-Phenoxy-acetyl)-piperidin-2-yl]-thiazol-4-yl}-benzoic acid]"
6,0.0196,"O=C(COc1ccccc1)N1CCCC[C@@H]1c1nc(-c2ccccn2)cs1 [Example 6, 2-Phenoxy-1-[(R)-2-(4-pyridin-2-yl-thiazol-2-yl)-piperidin-1-yl]-ethanone]"
7,0.286,"O=C(COc1ccccc1)N1CCCC[C@@H]1c1nc(-c2ccc(F)c(F)c2)cs1 [Example 7, 1-{(R)-2-[4-(3,4-Difluoro-phenyl)-thiazol-2-yl]-piperidin-1-yl}-2-phenoxy-ethanone]"
8,0.025,"O=C(COc1ccccc1)N1CCCC[C@@H]1c1nc(-c2cccnc2)cs1 [Example 8, 2-Phenoxy-1-[(R)-2-(4-pyridin-3-yl-thiazol-2-yl)-piperidin-1-yl]-ethanone]"
9,0.247,"COc1ccc(Cl)cc1-c1csc([C@H]2CCCCN2C(=O)COc2ccccc2)n1 [Example 9, 1-{(R)-2-[4-(5-Chloro-2-methoxy-phenyl)-thiazol-2-yl]-piperidin-1-yl}-2-phenoxy-ethanone]"
10,0.068,"O=C(COc1ccccc1)N1CCCC[C@@H]1c1nc(-c2ccncc2)cs1 [Example 10, 2-Phenoxy-1-[(R)-2-(4-pyridin-4-yl-thiazol-2-yl)-piperidin-1-yl]-ethanone]"
11,0.272,"COc1ccccc1-c1csc([C@H]2CCCCN2C(=O)COc2ccccc2)n1 [Example 11, 1-{(R)-2-[4-(2-Methoxy-phenyl)-thiazol-2-yl]-piperidin-1-yl}-2-phenoxy-ethanone]"
12,0.141,"CS(=O)(=O)c1ccc(-c2csc([C@H]3CCCCN3C(=O)COc3ccccc3)n2)cc1 [Example 12, 1-{(R)-2-[4-(4-Methanesulfonyl-phenyl)-thiazol-2-yl]-piperidin-1-yl}-2-phenoxy-ethanone]"
13,0.0424,"COC(=O)c1cccc(-c2csc([C@H]3CCCCN3C(=O)COc3ccccc3)n2)n1 [Example 13, 6-{2-[(R)-1-(2-Phenoxy-acetyl)-piperidin-2-yl]-thiazol-4-yl}-pyridine-2-carboxylic acid methyl ester]"
14,0.0659,"O=C1Cc2cc(-c3csc([C@H]4CCCCN4C(=O)COc4ccccc4)n3)ccc2N1 [Example 14, 5-{2-[(R)-1-(2-Phenoxy-acetyl)-piperidin-2-yl]-thiazol-4-yl}-1,3-dihydro-indol-2-one]"
15,0.0326,"CC(=O)Nc1ccc(-c2csc([C@H]3CCCCN3C(=O)COc3ccccc3)n2)cc1 [Example 15, N-(4-{2-[(R)-1-(2-Phenoxy-acetyl)-piperidin-2-yl]-thiazol-4-yl}-phenyl)-acetamide]"
16,0.0796,"O=C(COc1ccccc1)N1CCCC[C@@H]1c1nc(-c2ccc(O)cc2)cs1 [Example 16, 1-{(R)-2-[4-(4-Hydroxy-phenyl)-thiazol-2-yl]-piperidin-1-yl}-2-phenoxy-ethanone]"

row,IC50 [µM],SMILES
1,0.134,"O=C(COc1ccccc1)N1CCCC[C@@H]1c1nc(-c2ccc3c(c2)OCO3)cs1 [Example 17, 1-[(R)-2-(4-Benzo[1,3]dioxol-5-yl-thiazol-2-yl)-piperidin-1-yl]-2-phenoxy-ethanone]"
2,0.42,"CN(C)c1ccc(-c2csc([C@H]3CCCCN3C(=O)COc3ccccc3)n2)cc1 [Example 18, 1-{(R)-2-[4-(4-Dimethylamino-phenyl)-thiazol-2-yl]-piperidin-1-yl}-2-phenoxy-ethanone]"
3,0.33,"Cc1c(-c2csc([C@H]3CCCCN3C(=O)COc3ccccc3)n2)[nH]c2ccccc12 [Example 19, 1-{(R)-2-[4-(3-Methyl-1H-indol-2-yl)-thiazol-2-yl]-piperidin-1-yl}-2-phenoxy-ethanone]"
4,0.0405,"N#Cc1ccc(-c2csc([C@H]3CCCCN3C(=O)COc3ccccc3)n2)cc1 [Example 20, 4-{2-[(R)-1-(2-Phenoxy-acetyl)-piperidin-2-yl]-thiazol-4-yl}-benzonitrile]"
5,0.065,"N#Cc1cccc(-c2csc([C@H]3CCCCN3C(=O)COc3ccccc3)n2)c1 [Example 21, 3-{2-[(R)-1-(2-Phenoxy-acetyl)-piperidin-2-yl]-thiazol-4-yl}-benzonitrile]"
6,0.095,"O=C(COc1ccccc1)N1CCCC[C@@H]1c1nc(-c2ccc(Cl)nc2)cs1 [Example 22, 1-{(R)-2-[4-(6-Chloro-pyridin-3-yl)-thiazol-2-yl]-piperidin-1-yl}-2-phenoxy-ethanone]"
7,0.0886,"O=C(COc1ccccc1)N1CCCC[C@@H]1c1nc(-c2ccc(Br)s2)cs1 [Example 23, 1-{(R)-2-[4-(5-Bromo-thiophen-2-yl)-thiazol-2-yl]-piperidin-1-yl}-2-phenoxy-ethanone]"
8,0.164,"CC(=O)Nc1ccc(-c2nc([C@H]3CCCCN3C(=O)COc3ccccc3)cs2)cc1 [Example 25, N-(4-{4-[(R)-1-(2-Phenoxy-acetyl)-piperidin-2-yl]-thiazol-2-yl}-phenyl)-acetamide]"
9,0.13,"O=C(COc1ccccc1)N1CCCC[C@@H]1c1csc(-c2n[nH]c3ccccc23)n1 [Example 26, 1-{(R)-2-[2-(1H-Indazol-3-yl)-thiazol-4-yl]-piperidin-1-yl}-2-phenoxy-ethanone]"
10,0.313,"O=C(COc1ccccc1)N1CCCC[C@@H]1c1csc(-c2ccc(C(F)(F)F)nc2)n1 [Example 27, 2-Phenoxy-1-{(R)-2-[2-(6-trifluoromethyl-pyridin-3-yl)-thiazol-4-yl]-piperidin-1-yl}-ethanone]"
11,0.935,"O=C(COc1ccccc1)N1CCCC[C@@H]1c1csc(-c2ccc(C(F)(F)F)cn2)n1 [Example 28, 2-Phenoxy-1-{(R)-2-[2-(5-trifluoromethyl-pyridin-2-yl)-thiazol-4-yl]-piperidin-1-yl}-ethanone]"
12,0.224,"O=C(COc1ccccc1)N1CCCC[C@@H]1c1csc(-c2cnccn2)n1 [Example 29, 2-Phenoxy-1-[(R)-2-(2-pyrazin-2-yl-thiazol-4-yl)-piperidin-1-yl]-ethanone]"
13,0.0887,"Cc1ccc(-c2nc([C@H]3CCCCN3C(=O)COc3ccccc3)cs2)cn1 [Example 30, 1-{(R)-2-[2-(6-Methyl-pyridin-3-yl)-thiazol-4-yl]-piperidin-1-yl}-2-phenoxy-ethanone]"
14,0.0562,"O=C(COc1ccccc1)N1CCCC[C@@H]1c1csc(-c2cccnc2)n1 [Example 31, 2-Phenoxy-1-[(R)-2-(2-pyridin-3-yl-thiazol-4-yl)-piperidin-1-yl]-ethanone]"
15,0.15,"O=C(COc1ccccc1)N1CCCC[C@@H]1c1csc(-c2ccncc2)n1 [Example 32, 2-Phenoxy-1-[(R)-2-(2-pyridin-4-yl-thiazol-4-yl)-piperidin-1-yl]-ethanone]"
16,0.0794,"COc1ccc(-c2nc([C@H]3CCCCN3C(=O)COc3ccccc3)cs2)cn1 [Example 33, 1-{(R)-2-[2-(6-Methoxy-pyridin-3-yl)-thiazol-4-yl]-piperidin-1-yl}-2-phenoxy-ethanone]"
